Columns and labels:
Settings in all cases: compound 10.0 µM
TLK1 (human) = TLK1 (human) (UniProt Q9UKI8)
IRAK1 (human) = IRAK1 (human) (UniProt P51617)
EPHA6 (human) = EPHA6 (human) (UniProt Q9UF33)
TEK (human) = TEK (human) (UniProt Q02763)
MAP3K7 (human) = MAP3K7 (human) (UniProt O43318)
LIMK1 (human) = LIMK1 (human) (UniProt P53667)
[1] = tested on: FLT3 (human), P36888 [ITD]
PRKCD (human) = PRKCD (human) (UniProt Q05655)
TBK1 (human) = TBK1 (human) (UniProt Q9UHD2)
PIM2 (human) = PIM2 (human) (UniProt Q9P1W9)
MAP3K5 (human) = MAP3K5 (human) (UniProt Q99683)
AAK1 (human) = AAK1 (human) (UniProt Q2M2I8)
AURKA (human) = AURKA (human) (UniProt O14965)
STK10 (human) = STK10 (human) (UniProt O94804)
PI4KB (human) = PI4KB (human) (UniProt Q9UBF8)
MYO3B (human) = MYO3B (human) (UniProt Q8WXR4)
DAPK3 (human) = DAPK3 (human) (UniProt O43293)
CAMK1D (human) = CAMK1D (human) (UniProt Q8IU85)
ULK2 (human) = ULK2 (human) (UniProt Q8IYT8)
LYN (human) = LYN (human) (UniProt P07948)
CDKL1 (human) = CDKL1 (human) (UniProt Q00532)
HUNK (human) = HUNK (human) (UniProt P57058)
CDC42BPB (human) = CDC42BPB (human) (UniProt Q9Y5S2)
NEK3 (human) = NEK3 (human) (UniProt P51956)
LTK (human) = LTK (human) (UniProt P29376)
EPHA4 (human) = EPHA4 (human) (UniProt P54764)
AKT1 (human) = AKT1 (human) (UniProt P31749)
GAK (human) = GAK (human) (UniProt O14976)
ADCK3 (human) = ADCK3 (human) (UniProt Q8NI60)
SRPK2 (human) = SRPK2 (human) (UniProt P78362)
RET (human) = RET (human) (UniProt P07949)
STK24 (human) = STK24 (human) (UniProt Q9Y6E0)
PIK3C2G (human) = PIK3C2G (human) (UniProt O75747)
MAP3K15 (human) = MAP3K15 (human) (UniProt Q6ZN16)
STK32B (human) = STK32B (human) (UniProt Q9NY57)
MAPK13 (human) = MAPK13 (human) (UniProt O15264)
[2] = tested on: FLT3 (human), P36888 [D835H]
STK33 (human) = STK33 (human) (UniProt Q9BYT3)
RIOK1 (human) = RIOK1 (human) (UniProt Q9BRS2)
CDC2L2 (human) = CDC2L2 (human) (UniProt Q9UQ88)
NTRK2 (human) = NTRK2 (human) (UniProt Q16620)
SLK (human) = SLK (human) (UniProt Q9H2G2)

Sequence of STK24 (human) (Q9Y6E0 whole entry, looked up): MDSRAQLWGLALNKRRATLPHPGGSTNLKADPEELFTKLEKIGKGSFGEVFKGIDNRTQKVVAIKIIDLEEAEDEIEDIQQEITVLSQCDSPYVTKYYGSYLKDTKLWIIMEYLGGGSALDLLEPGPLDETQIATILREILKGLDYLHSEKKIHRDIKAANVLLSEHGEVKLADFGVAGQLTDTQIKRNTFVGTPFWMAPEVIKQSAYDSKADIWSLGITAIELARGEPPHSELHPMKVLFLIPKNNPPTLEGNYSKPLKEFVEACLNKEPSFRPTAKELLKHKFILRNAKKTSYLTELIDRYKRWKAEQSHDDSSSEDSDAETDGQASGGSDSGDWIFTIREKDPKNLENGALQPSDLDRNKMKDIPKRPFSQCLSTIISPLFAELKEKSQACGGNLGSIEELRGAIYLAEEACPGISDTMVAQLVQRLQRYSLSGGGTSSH
Sequence of PIK3C2G (human) (O75747 whole entry, looked up): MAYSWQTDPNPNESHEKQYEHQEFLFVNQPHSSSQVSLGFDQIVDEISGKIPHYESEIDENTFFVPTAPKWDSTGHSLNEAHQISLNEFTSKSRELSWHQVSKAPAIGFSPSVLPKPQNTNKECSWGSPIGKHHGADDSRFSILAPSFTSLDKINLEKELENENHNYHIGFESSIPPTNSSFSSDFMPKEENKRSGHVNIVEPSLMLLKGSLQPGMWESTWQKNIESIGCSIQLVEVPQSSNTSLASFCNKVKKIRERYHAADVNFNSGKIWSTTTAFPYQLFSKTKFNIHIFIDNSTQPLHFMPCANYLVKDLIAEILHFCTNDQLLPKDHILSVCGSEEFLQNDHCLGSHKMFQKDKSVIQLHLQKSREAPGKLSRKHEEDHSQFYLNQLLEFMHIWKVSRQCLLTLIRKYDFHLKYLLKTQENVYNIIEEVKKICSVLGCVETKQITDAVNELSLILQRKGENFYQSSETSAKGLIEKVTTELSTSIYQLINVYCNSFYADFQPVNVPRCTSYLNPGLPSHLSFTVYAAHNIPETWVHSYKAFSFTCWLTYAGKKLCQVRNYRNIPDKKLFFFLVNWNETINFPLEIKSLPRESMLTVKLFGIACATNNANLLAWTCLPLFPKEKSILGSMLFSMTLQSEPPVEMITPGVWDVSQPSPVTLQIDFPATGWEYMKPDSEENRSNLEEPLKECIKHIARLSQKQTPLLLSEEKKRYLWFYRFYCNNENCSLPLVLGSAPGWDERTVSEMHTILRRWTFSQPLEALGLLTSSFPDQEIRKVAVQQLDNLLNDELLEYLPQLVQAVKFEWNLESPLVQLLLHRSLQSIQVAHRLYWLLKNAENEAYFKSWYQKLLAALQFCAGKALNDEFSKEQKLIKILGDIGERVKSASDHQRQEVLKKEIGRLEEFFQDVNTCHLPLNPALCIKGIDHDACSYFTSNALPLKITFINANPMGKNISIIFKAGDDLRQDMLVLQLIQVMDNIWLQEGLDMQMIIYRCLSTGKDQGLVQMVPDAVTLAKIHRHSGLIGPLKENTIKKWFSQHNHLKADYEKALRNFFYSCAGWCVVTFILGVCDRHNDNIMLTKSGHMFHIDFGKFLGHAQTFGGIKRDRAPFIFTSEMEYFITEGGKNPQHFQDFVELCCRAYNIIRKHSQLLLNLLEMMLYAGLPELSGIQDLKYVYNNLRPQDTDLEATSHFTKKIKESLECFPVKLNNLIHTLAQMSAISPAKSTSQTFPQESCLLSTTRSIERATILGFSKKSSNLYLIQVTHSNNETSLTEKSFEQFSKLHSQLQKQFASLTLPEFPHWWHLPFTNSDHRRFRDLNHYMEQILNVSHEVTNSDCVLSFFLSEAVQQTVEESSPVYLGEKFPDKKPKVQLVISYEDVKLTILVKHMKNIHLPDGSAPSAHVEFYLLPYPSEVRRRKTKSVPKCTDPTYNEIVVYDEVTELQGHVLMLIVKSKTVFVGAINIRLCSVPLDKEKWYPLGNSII
Sequence of TLK1 (human) (Q9UKI8 whole entry, looked up): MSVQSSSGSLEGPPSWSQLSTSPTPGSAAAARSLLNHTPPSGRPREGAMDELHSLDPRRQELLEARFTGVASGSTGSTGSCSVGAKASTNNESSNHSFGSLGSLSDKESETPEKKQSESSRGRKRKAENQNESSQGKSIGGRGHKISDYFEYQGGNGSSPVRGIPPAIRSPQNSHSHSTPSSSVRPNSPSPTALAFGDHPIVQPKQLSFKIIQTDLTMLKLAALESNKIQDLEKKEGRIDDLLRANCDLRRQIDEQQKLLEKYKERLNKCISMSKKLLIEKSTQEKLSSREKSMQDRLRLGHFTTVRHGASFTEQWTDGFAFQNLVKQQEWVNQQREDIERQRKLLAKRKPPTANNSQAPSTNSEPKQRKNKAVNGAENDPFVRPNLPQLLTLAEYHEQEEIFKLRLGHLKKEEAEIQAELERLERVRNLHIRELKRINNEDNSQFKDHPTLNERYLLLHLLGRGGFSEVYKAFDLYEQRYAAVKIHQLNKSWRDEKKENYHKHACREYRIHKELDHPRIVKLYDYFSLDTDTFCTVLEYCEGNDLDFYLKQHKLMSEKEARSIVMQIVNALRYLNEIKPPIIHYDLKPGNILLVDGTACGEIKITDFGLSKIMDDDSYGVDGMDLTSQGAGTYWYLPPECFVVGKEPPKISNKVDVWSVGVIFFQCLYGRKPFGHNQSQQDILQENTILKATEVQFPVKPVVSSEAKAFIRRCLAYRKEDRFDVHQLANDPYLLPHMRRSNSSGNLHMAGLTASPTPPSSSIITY
Sequence of MAP3K15 (human) (Q6ZN16 whole entry, looked up): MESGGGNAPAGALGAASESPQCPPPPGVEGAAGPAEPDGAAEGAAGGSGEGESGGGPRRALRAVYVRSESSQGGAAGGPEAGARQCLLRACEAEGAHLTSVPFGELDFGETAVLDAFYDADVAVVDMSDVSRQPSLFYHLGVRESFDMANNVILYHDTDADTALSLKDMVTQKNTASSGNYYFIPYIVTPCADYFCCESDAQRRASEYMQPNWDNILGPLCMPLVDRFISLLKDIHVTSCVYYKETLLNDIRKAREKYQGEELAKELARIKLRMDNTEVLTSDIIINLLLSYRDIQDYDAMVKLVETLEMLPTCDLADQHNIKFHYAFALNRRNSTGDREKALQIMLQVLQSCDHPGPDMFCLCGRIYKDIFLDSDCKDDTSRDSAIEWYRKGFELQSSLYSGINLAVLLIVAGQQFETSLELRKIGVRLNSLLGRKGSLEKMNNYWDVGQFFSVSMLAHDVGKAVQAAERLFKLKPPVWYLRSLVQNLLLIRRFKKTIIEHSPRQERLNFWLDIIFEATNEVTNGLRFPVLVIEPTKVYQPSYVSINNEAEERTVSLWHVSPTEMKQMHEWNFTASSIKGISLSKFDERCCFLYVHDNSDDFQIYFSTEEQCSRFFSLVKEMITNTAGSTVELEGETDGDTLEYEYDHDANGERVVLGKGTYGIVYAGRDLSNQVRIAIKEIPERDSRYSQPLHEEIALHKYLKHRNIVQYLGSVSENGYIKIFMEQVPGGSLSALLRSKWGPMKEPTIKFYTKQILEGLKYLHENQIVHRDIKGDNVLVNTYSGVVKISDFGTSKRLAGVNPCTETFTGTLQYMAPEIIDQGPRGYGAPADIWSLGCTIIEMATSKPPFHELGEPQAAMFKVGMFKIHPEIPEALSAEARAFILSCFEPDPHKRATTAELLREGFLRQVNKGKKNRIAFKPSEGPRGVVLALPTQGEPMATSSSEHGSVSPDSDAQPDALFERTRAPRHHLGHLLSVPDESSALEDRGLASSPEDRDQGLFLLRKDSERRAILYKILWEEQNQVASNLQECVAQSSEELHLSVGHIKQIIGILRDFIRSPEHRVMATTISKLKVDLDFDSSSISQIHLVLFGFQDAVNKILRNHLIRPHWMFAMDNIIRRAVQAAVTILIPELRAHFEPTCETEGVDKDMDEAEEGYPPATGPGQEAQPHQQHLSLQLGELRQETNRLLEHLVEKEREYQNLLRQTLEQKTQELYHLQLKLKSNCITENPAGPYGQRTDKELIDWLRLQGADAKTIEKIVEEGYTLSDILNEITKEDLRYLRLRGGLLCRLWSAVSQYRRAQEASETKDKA
Sequence of STK33 (human) (Q9BYT3 whole entry, looked up): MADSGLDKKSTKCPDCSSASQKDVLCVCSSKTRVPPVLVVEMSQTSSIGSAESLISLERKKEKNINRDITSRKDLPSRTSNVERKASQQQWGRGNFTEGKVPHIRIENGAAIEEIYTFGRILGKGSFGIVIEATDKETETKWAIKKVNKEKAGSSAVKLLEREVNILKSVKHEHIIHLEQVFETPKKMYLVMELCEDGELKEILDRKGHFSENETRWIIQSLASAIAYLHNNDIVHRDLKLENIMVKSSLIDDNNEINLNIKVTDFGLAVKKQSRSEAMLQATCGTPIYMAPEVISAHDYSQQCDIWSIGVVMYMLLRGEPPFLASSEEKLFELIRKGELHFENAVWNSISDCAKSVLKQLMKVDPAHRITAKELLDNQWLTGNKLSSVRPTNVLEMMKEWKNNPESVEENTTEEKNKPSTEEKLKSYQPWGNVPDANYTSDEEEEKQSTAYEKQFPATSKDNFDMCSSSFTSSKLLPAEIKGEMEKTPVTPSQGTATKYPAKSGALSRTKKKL
Sequence of MAPK13 (human) (O15264 whole entry, looked up): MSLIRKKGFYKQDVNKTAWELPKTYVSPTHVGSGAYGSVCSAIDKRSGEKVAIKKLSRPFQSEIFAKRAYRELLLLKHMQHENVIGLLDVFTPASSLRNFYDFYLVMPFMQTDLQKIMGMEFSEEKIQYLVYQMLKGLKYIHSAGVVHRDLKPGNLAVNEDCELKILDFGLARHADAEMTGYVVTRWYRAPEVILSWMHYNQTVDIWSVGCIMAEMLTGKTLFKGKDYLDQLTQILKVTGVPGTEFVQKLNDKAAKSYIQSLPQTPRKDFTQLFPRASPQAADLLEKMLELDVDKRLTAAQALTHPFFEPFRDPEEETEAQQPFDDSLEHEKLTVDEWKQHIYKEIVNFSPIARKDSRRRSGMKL

CNC(=O)c1cc(Oc2ccc(NC(=O)Nc3ccc(Cl)c(C(F)(F)F)c3)cc2)ccn1
per cent of control (TLK1 (human)): 74% | per cent of control (IRAK1 (human)): 76% | per cent of control (EPHA6 (human)): 1.6% | per cent of control (TEK (human)): 2.8% | per cent of control (MAP3K7 (human)): 2.6% | per cent of control (LIMK1 (human)): 7.6% | per cent of control [1]: 0.5% | per cent of control (PRKCD (human)): 100% | per cent of control (TBK1 (human)): 100% | per cent of control (PIM2 (human)): 89% | per cent of control (MAP3K5 (human)): 100% | per cent of control (AAK1 (human)): 100% | per cent of control (AURKA (human)): 83% | per cent of control (STK10 (human)): 0% | per cent of control (PI4KB (human)): 100% | per cent of control (MYO3B (human)): 38% | per cent of control (DAPK3 (human)): 94% | per cent of control (CAMK1D (human)): 88% | per cent of control (ULK2 (human)): 94% | per cent of control (LYN (human)): 11% | per cent of control (CDKL1 (human)): 75% | per cent of control (HUNK (human)): 90% | per cent of control (CDC42BPB (human)): 100% | per cent of control (NEK3 (human)): 100% | per cent of control (LTK (human)): 76% | per cent of control (EPHA4 (human)): 15% | per cent of control (AKT1 (human)): 100% | per cent of control (GAK (human)): 62% | per cent of control (ADCK3 (human)): 90% | per cent of control (SRPK2 (human)): 100% | per cent of control (RET (human)): 0% | per cent of control (STK24 (human)): 81% | per cent of control (PIK3C2G (human)): 100% | per cent of control (MAP3K15 (human)): 79% | per cent of control (STK32B (human)): 100% | per cent of control (MAPK13 (human)): 21% | per cent of control [2]: 0.45% | per cent of control (STK33 (human)): 6% | per cent of control (RIOK1 (human)): 100% | per cent of control (CDC2L2 (human)): 77% | per cent of control (NTRK2 (human)): 6.1% | per cent of control (SLK (human)): 9.2%

CNC(=O)c1cc(Oc2ccc(NC(=O)Nc3ccc(Cl)c(C(F)(F)F)c3)cc2)cc[n+]1[O-]
per cent of control (TLK1 (human)): 60% | per cent of control (IRAK1 (human)): 22% | per cent of control (EPHA6 (human)): 6.6% | per cent of control (TEK (human)): 3.5% | per cent of control (MAP3K7 (human)): 2.9% | per cent of control (LIMK1 (human)): 8.5% | per cent of control [1]: 0.4% | per cent of control (PRKCD (human)): 100% | per cent of control (TBK1 (human)): 100% | per cent of control (PIM2 (human)): 100% | per cent of control (MAP3K5 (human)): 89% | per cent of control (AAK1 (human)): 100% | per cent of control (AURKA (human)): 26% | per cent of control (STK10 (human)): 0% | per cent of control (PI4KB (human)): 100% | per cent of control (MYO3B (human)): 17% | per cent of control (DAPK3 (human)): 100% | per cent of control (CAMK1D (human)): 75% | per cent of control (ULK2 (human)): 75% | per cent of control (LYN (human)): 11% | per cent of control (CDKL1 (human)): 45% | per cent of control (HUNK (human)): 74% | per cent of control (CDC42BPB (human)): 97% | per cent of control (NEK3 (human)): 100% | per cent of control (LTK (human)): 73% | per cent of control (EPHA4 (human)): 13% | per cent of control (AKT1 (human)): 100% | per cent of control (GAK (human)): 70% | per cent of control (ADCK3 (human)): 86% | per cent of control (SRPK2 (human)): 73% | per cent of control (RET (human)): 0% | per cent of control (STK24 (human)): 14% | per cent of control (PIK3C2G (human)): 100% | per cent of control (MAP3K15 (human)): 80% | per cent of control (STK32B (human)): 100% | per cent of control (MAPK13 (human)): 0.55% | per cent of control [2]: 0.7% | per cent of control (STK33 (human)): 6.9% | per cent of control (RIOK1 (human)): 100% | per cent of control (CDC2L2 (human)): 99% | per cent of control (NTRK2 (human)): 2.4% | per cent of control (SLK (human)): 9.4%

Reference: the kinase profiling compilation of Christmann-Franck et al. (2016)
